According to ChEMBL document CHEMBL3045151, “Long-term pre-exposure of the pest mite Tyrophagus putrescentiae to sub-lethal residues of bifenthrin on rapeseed did not affect its susceptibility to bifenthrin” (2011):
Calls of active or inactive are those of the source. The rule behind the calls is not given here.

What was measured:
Tyrophagus putrescentiae [1] = experiment: Insecticidal activity against Tyrophagus putrescentiae in compound treated rapeseed assessed as mortality (LD95) after 126 days (reference value: 2.4 ug/cm'2); assay type: functional
Tyrophagus putrescentiae [2] = experiment: Insecticidal activity against Tyrophagus putrescentiae in compound treated rapeseed assessed as mortality (LD95) after 21 days (reference value: 2.4 ug/cm'2); assay type: functional
Tyrophagus putrescentiae [3] = experiment: Insecticidal activity against Tyrophagus putrescentiae in compound treated rapeseed assessed as decrease in population at 0.15 to 150 ug/100 g of rapeseed measured after 21 days; assay type: functional, organism-based
Tyrophagus putrescentiae [4] = experiment: Insecticidal activity against Tyrophagus putrescentiae in compound treated rapeseed assessed as mortality (LD50) after 42 days (reference value: 0.78 ug/cm'2); assay type: functional
Tyrophagus putrescentiae [5] = experiment: Insecticidal activity against Tyrophagus putrescentiae in compound treated rapeseed assessed as mortality (LD95) after 63 days (reference value: 2.4 ug/cm'2); assay type: functional
Tyrophagus putrescentiae [6] = experiment: Insecticidal activity against Tyrophagus putrescentiae in compound treated rapeseed assessed as decrease in population measured after 21 days; assay type: functional
Tyrophagus putrescentiae [7] = experiment: Insecticidal activity against Tyrophagus putrescentiae in compound treated rapeseed assessed as mortality (LD50) after 84 days (reference value: 0.78 ug/cm'2); assay type: functional
Tyrophagus putrescentiae [8] = experiment: Insecticidal activity against Tyrophagus putrescentiae in compound treated rapeseed assessed as mortality (LD95) after 105 days (reference value: 2.4 ug/cm'2); assay type: functional
Tyrophagus putrescentiae [9] = experiment: Insecticidal activity against Tyrophagus putrescentiae from control origin in compound treated rapeseed assessed as respiration ppm of co2 at sub-lethal concentration at 25 degC, 85% RH measured after 147 days; assay type: functional
Tyrophagus putrescentiae [10] = experiment: Insecticidal activity against Tyrophagus putrescentiae from compound treated origin in compound treated rapeseed assessed as respiration ppm of co2 per gram of mite fresh weight per hr at sub-lethal concentration at 25 degC, 85% RH measured after 147 days; assay type: functional
Tyrophagus putrescentiae [11] = experiment: Insecticidal activity against Tyrophagus putrescentiae in compound treated rapeseed assessed as mortality (LD50) after 63 days (reference value: 0.78 ug/cm'2); assay type: functional
Tyrophagus putrescentiae [12] = experiment: Insecticidal activity against Tyrophagus putrescentiae in compound treated rapeseed assessed as mortality (LD50) after 21 days (reference value: 0.78 ug/cm'2); assay type: functional
Tyrophagus putrescentiae [13] = experiment: Insecticidal activity against Tyrophagus putrescentiae in compound treated rapeseed assessed as mortality after 147 days (reference value: 2.4 ug/cm'2); assay type: functional
Tyrophagus putrescentiae [14] = experiment: Insecticidal activity against Tyrophagus putrescentiae in compound treated rapeseed assessed as mortality (LD50) after 126 days (reference value: 0.78 ug/cm'2); assay type: functional
Tyrophagus putrescentiae [15] = experiment: Insecticidal activity against Tyrophagus putrescentiae from control origin in compound treated rapeseed assessed as increase in population rate at sub-lethal concentration at 25 degC, 85% RH measured after 147 days; assay type: functional, organism-based
Tyrophagus putrescentiae [16] = experiment: Insecticidal activity against Tyrophagus putrescentiae in compound treated rapeseed assessed as mortality (LD95) after 42 days (reference value: 2.4 ug/cm'2); assay type: functional
Tyrophagus putrescentiae [17] = experiment: Insecticidal activity against Tyrophagus putrescentiae in compound treated rapeseed assessed as mortality (LD50) after 147 days (reference value: 0.78 ug/cm'2); assay type: functional
Tyrophagus putrescentiae [18] = experiment: Insecticidal activity against Tyrophagus putrescentiae from compound treated origin in compound treated rapeseed assessed as increase in population rate at sub-lethal concentration at 25 degC, 85% RH measured after 147 days; assay type: functional, organism-based
Tyrophagus putrescentiae [19] = experiment: Insecticidal activity against Tyrophagus putrescentiae in compound treated rapeseed assessed as mortality (LD50) after 105 days (reference value: 0.78 ug/cm'2); assay type: functional
Tyrophagus putrescentiae [20] = experiment: Insecticidal activity against Tyrophagus putrescentiae in compound treated rapeseed assessed as mortality (LD95) after 84 days (reference value: 2.4 ug/cm'2); assay type: functional

Cc1c(COC(=O)[C@@H]2[C@H](/C=C(\Cl)C(F)(F)F)C2(C)C)cccc1-c1ccccc1 [BIFENTHRIN]
LD95 (Tyrophagus putrescentiae [1]): 1.6 microg/cm2 | LD95 (Tyrophagus putrescentiae [2]): 1.6 microg/cm2 | Activity (Tyrophagus putrescentiae [3]): Active | LD50 (Tyrophagus putrescentiae [4]): 0.65 microg/cm2 | LD95 (Tyrophagus putrescentiae [5]): 2 microg/cm2 | ED50 (Tyrophagus putrescentiae [6]): 2.7 µg | LD50 (Tyrophagus putrescentiae [7]): 0.46 microg/cm2 | LD95 (Tyrophagus putrescentiae [8]): 2.9 microg/cm2 | Activity (Tyrophagus putrescentiae [9]): 896 ppm/g/hr | Activity (Tyrophagus putrescentiae [10]): 745 ppm/g/hr | LD50 (Tyrophagus putrescentiae [11]): 0.24 microg/cm2 | LD50 (Tyrophagus putrescentiae [12]): 0.44 microg/cm2 | LD95 (Tyrophagus putrescentiae [13]): 1.8 microg/cm2 | LD50 (Tyrophagus putrescentiae [14]): 0.44 microg/cm2 | Activity (Tyrophagus putrescentiae [15]): inactive | LD95 (Tyrophagus putrescentiae [16]): 2.4 microg/cm2 | LD50 (Tyrophagus putrescentiae [17]): 0.16 microg/cm2 | Activity (Tyrophagus putrescentiae [18]): inactive | LD50 (Tyrophagus putrescentiae [19]): 1.14 microg/cm2 | LD95 (Tyrophagus putrescentiae [20]): 2.3 microg/cm2
